# Columns and labels:
# [1] = target: T1, yeast succinate dehydrogenase (Saccharomyces cerevisiae, UniProt P21801+P33421+P37298+Q00711); assay: inhibition of yeast succinate dehydrogenase activity (Fig. S2); format: cell-based
# T1 construct: gene SDH1
# [2] = target: T2, malate-quinone oxidoreductase (PfMQO) (Plasmodium falciparum, UniProt C6KT09); assay: malate:dUQ/DCIP reductase activity in mitochondrial fraction of PfMQO-expressing yeast, with ΔMdh1 as negative control; format: biochemical
# T2 construct: gene PF3D7_0616800; native full-length PfMQO from codon-optimized cDNA, expressed in ΔMdh1 yeast mitochondria
# T2 sequence (C6KT09 1-521): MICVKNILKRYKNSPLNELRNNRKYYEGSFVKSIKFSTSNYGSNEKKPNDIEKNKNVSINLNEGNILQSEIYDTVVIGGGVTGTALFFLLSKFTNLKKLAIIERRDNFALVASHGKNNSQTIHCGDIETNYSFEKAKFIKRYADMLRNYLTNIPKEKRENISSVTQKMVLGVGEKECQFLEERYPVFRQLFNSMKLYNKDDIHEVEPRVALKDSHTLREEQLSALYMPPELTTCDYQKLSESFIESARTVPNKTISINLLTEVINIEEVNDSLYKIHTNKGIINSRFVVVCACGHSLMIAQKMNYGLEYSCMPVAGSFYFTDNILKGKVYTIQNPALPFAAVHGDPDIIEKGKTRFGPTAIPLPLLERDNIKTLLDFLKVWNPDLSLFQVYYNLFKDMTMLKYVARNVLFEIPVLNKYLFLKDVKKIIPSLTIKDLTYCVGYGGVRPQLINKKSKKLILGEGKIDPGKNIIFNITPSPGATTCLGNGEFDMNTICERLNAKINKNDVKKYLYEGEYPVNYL
# T1 sequence (Q00711 29-640): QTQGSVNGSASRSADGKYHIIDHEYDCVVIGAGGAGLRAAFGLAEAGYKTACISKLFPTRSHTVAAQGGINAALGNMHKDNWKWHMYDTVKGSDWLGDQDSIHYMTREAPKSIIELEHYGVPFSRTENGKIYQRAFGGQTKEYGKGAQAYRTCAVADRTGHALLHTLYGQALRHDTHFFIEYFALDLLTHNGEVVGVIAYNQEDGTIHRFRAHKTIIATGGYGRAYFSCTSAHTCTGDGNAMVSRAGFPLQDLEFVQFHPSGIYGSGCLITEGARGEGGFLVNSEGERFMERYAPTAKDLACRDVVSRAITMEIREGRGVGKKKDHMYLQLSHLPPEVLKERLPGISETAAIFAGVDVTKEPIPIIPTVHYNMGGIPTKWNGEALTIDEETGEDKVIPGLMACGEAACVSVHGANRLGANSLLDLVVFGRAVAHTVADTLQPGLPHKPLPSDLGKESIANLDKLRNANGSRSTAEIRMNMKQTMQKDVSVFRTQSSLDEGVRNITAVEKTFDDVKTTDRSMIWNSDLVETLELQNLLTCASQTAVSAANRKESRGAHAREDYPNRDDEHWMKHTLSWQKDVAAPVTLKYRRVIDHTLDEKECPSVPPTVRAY
# T1 sequence (P21801 21-266): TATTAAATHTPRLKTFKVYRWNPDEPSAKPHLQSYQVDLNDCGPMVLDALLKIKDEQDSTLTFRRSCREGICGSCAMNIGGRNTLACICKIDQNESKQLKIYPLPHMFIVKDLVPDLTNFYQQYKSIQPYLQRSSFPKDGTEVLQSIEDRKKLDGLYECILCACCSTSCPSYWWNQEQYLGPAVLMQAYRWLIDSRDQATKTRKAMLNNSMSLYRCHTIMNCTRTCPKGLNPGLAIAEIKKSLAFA
# T1 sequence (P33421 51-198): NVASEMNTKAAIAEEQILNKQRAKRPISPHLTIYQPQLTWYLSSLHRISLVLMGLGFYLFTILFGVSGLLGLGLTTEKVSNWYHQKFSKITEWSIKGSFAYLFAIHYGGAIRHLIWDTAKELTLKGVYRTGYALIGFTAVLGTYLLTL
# T1 sequence (P37298 32-181): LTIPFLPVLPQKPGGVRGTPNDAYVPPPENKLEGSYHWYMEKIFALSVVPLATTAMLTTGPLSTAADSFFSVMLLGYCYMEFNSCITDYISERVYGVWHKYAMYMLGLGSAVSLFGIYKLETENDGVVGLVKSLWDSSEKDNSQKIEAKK
structure (smiles),measurement,setting,value
CC(C)=CCC/C(C)=C/CC/C(C)=C/Cc1c(O)c2ccccc2oc1=O [ferulenol],IC50,[1],~100 nM
same,malate:dUQ/DCIP reductase activity in mitochondrial fraction of PfMQO-expressing,[2],almost completely suppressed by 1

# Source: paper PMC10269487, “Plasmodium Parasite Malate-Quinone Oxidoreductase Functionally Complements a Yeast Deletion Mutant of Mitochondrial Malate Dehydrogenase” (Microbiology Spectrum, 2023)
